| SMILES | melting point [°C] |
| --- | --- |
| Cc1cn(Cc2ccccc2[N+](=O)[O-])c(=O)o1 | 82.9 to 83.9 |
| O=C(O)Cc1cc([N+](=O)[O-])ccc1Sc1cccc(Br)c1 | 123 to 125 |
| CCOC(=O)c1cc2cc(N3CCN(C(=O)OC(C)(C)C)CC3)ccc2o1 | 116 to 118 |
| O=C(O)c1nc(Cl)sc1Cl | 191 |
| COc1ccc(OC)c(C=CC(=O)N(C)O)c1 | 111 to 112 |
| COC1=C(OC)C(=O)C(CCCCCCCCCC(=O)O)=C(C)C1=O | 59 to 60 |
| O=C(O)C(Sc1nc2ccc(Cl)nc2s1)c1ccccc1 (stereo unspecified) | 175 to 177 |
| CCOC(=O)c1cnn(-c2cccc(S(=O)(=O)N(C)C)n2)c1Cl | 117 to 120 |
| CCCN1CCc2[nH]c3ccc4sccc4c3c2C1 | 143 to 144 |
| O=C1Nc2ncccc2CN1C1CCN(Cc2ccccc2)CC1 | 187 |
| CC(C)(Cl)CC1NC(=O)c2ccccc21 (stereo unspecified) | 153 to 155 |
| O=C(c1ccco1)c1cnn2c(-c3ccccc3)ccnc12 | 185 to 187 |
| CCCCc1[nH]c(CC)nc(=O)c1Cc1ccc(-c2ccccc2C(=O)O)cc1 | 207 |
| Cc1nn(-c2ccc(C(F)(F)F)cn2)cc1COc1ccc(OCC(=O)O)cc1 | 138 to 139 |
| CCOc1nn(Cc2ccc(OCCc3nc(-c4ccccc4)oc3C)cc2)cc1CCC(=O)O | 142 to 143 |
| CC(Nc1cc(Cl)nc(SCC(=O)O)n1)c1ccc(Cl)cc1 (stereo unspecified) | 155 to 160 |
| CC(C)(C)OC(=O)NCCNC(=O)c1ncccc1Br | 125 to 130 |
| CC(C)c1cc(-c2ccc3c(c2)OCO3)[nH]c(=O)c1C#N | 266 to 268 |
| COc1ccc(C=CC=Cc2ccccc2)cc1 | 160 to 162 |
| N#Cc1cccc(C2=Nc3ccc(C#CC4=CC(=O)CCC4)cc3NC(=O)C2)c1 | 110 |
| CN(CCN1CCNC1=O)Cc1cn(-c2ccc(F)cc2)c2ccc(Cl)cc12 | 141 to 143 |
| C[C@H]1[C@@H](O)CC(=O)N1c1ccc(C#N)c(Cl)c1 | 161 to 162 |
| CC(C)(C)OC(=O)NCCNC(=O)c1cocn1 | 148 to 150 |
| CCN1C[C@@H](SCc2ccc(OC)cc2)C[C@H]1C(=O)NC | 68 to 70 |
| O=C(CC1c2ccccc2S(=O)(=O)C1c1ccccc1)NO (stereo unspecified) | 113 to 114 |
| O=C(CCc1cc(C2CCCCC2)c(O)c(C2CCCCC2)c1)OCCCCCCOC(=O)CCc1cc(C2CCCCC2)c(O)c(C2CCCCC2)c1 | 113 to 115 |

| SMILES | melting point [°C] |
| --- | --- |
| NC(=O)n1nc(-c2ccc(F)cc2)cc1N | 140 |
| O=S(=O)(CCCCCOc1ccc(C2=C(c3ccccc3)CCCc3cc(O)ccc32)cc1)CCCC(F)(F)C(F)(F)F | 176 to 178 |
| COc1cc2c(cc1[N+](=O)[O-])C(C)CC1c3ccccc3CC1(C)C2 (stereo unspecified) | 90 to 94 |
| COc1ccc(C(O)c2cc(O)ccc2OC)cc1 (stereo unspecified) | 62 to 68 |
| CCC(C)n1ncn(-c2ccc(N3CCN(c4ccc(OCC(O)(Cn5cncn5)c5ccc(Cl)cc5Cl)cc4)CC3)nc2)c1=O (stereo unspecified) | 84 to 87 |
| NC(=S)NN1CCc2cc(Cl)ccc21 | 199 to 200 |
| O=C(O)Cc1cnn(-c2ccccc2)c1-c1ccc(Cl)cc1 | 185 to 186 |
| CC[C@H](C(=O)O)[C@H](N)C(=O)O | 239 to 241 |
| CCOC(=O)Nc1nc(C(=O)C(=O)OC)ns1 | 170 to 174 |
| O=C(O)c1cc(=O)c2cc(-c3ccccc3)ccc2s1 | 220 |
| Cc1nn2c(C(F)(F)F)cc(-c3ccc(C(F)(F)F)cc3)nc2c1C#N | 184 |
| O=C(Nc1nc(C(F)(F)F)c(Br)s1)c1ccc(Cl)c(Cl)c1 | 191 to 192 |
| O=P(O)(O)C(O)(Cn1ccnc1)P(=O)(O)O | 235 to 241 |
| Nc1c(Cl)cc(C(O)CNCCCCCCOCCc2ccccc2)cc1Cl (stereo unspecified) | 60 to 63 |
| CCc1ccc(Cn2c(C)nc3ccc(C(=O)OC)nc32)c(Cl)c1 | 172 to 173 |
| CC1Cc2c([nH]c3ccccc23)-c2nc3c(c(=O)n21)CCCC3 (stereo unspecified) | 232 |
| CCOP(=O)(CCc1ccnc(-c2nc(=O)c3ccccc3s2)c1)OCC | 102 to 103 |
| CC(=O)C(=NNc1ccc([N+](=O)[O-])cc1)Sc1ccc(Cl)cc1 | 181 to 183 |
| O=C1C=C(NCc2ccccc2I)CCN1 | 163 to 164 |
| COc1c(C(=O)c2ccc([N+](=O)[O-])cc2Cl)c(C)nn1C | 97 to 98 |
| CNC(=O)C(CC1CCCCC1)NC(=O)Nc1n[nH]c(=S)s1 (stereo unspecified) | 246 to 247 |
| COc1ccc(-c2cc(=O)[nH]nc2-c2ccc(OC)c(F)c2)cc1F | 205 to 206 |
| CC(=O)Nc1n[nH]c2cc(Cl)ccc12 | 240 |
| Cc1cccc([C@H]2[C@H](C(=O)Nc3ccc(F)c(F)c3)C2(C)C)c1 (relative stereo) | 110 to 113 |
| O=C1N=Nc2ccncc21 | > 350 |
